Patent US8414885B2, “Methods and compositions for treating cancer” (priority 2009, dated 2013)
Peptide text beside a SMILES is read from it. * marks the point of attachment. Cbz = O=C(OCc1ccccc1)*; CH2F = FC*

Legend:
Assay type in all cases: cell-based, human
calpain = test: Immunoblotting for calpain activation in infected melanoma cells; conditions: delta-PK infected cultures; PD150606 100 μM; z-VAD-fmk 100 μM (Sigma-Aldrich) or 20 μM (Promega)
Text: (§1) FIG. 6. Calpain and caspase-7 and caspace-3 are activated in delta-PK infected melanoma cells. […] Data were quantified by densitometry and expressed as the ratio of the p76/p80 and p28 densitometric units +/−SD, respectively. Representatives of three replicate experiments are shown (***p<0.001 vs. Mock). B. The immunoblots in FIG. 6A were sequentially stripped and re-probed with antibodies to activated caspase-7, activated caspase-3, and actin. Data were quantified by densitometry and results are expressed as densitometric units +/−SD (**p<0.01, ***p<0.001 vs. Mock). C. […]
(§2) Cultured cells were lysed with radioimmunoprecipitation buffer [RIPA; 20 mM Tris-HCl (pH 7.4), […], 1% Nonidet P-40, 0.1% sodium dodecyl sulfate (SDS), 0.5% sodium deoxycholate] supplemented with protease and phosphatase inhibitor cocktails (Sigma-Aldrich), and sonicated twice for 30 seconds at 25% output power with a sonicator ultrasonic processor (Misonix, Inc., Farmingdale, N.Y.). […] Protein concentration was determined by the bicinchoninic assay (Pierce, Rockford, Ill.), and 100 μg protein samples were resolved by SDS-polyacrylamide gel elecrophoresis (SDS-PAGE) and transferred to polyvinylidene fluoride membranes followed by immunoblotting. […] Quantitation was by densitometric scanning with the Bio-Rad GS-700 imaging densitometer (Bio-Rad, Hercules, Calif.). […]

A2058 cells = test: EtHD cell death with or without protease inhibitors, A2058; conditions: A2058, delta-PK moi=0.5, 72 hrs p.i.; PD150606 100 μM or z-VAD-fmk 20 μM
Procedure: (§3) FIG. 7. Delta-PK induced melanoma cell death is both calpain and caspase-dependent. A. A2058 cells were infected with delta-PK (moi=0.5) or mock-infected with PBS and cultured without or with PD150606 (100 μM), z-VAD-fmk (20 µM) or both PD150606 and z-VAD-fmk. DMSO (28 mM) was used as vehicle control. Replicate cultures (n=3) were stained with EtHD at various times p.i. and the % staining cells calculated. B. A375 cells were infected with delta-PK (moi=0.5) in the absence or presence of inhibitors and stained with EtHD+. Delta-PK infected WI-38 cells and mock infected DMSO treated cells served as controls.
(§4) Cell death was determined by trypan blue exclusion and staining with ethidium homodimer-1 (EtHD), a cell impermeable red fluorescent nuclear stain that increases intensity after binding to the DNA of dead cells. […] Dead cells were counted by four independent hemacytometer counts. […] Stained cells were counted in five randomly selected 3 mm^2 fields (≧250 cells each), and the % positive cells was calculated relative to total number of cells imaged by phase contrast microscopy (Gober M D, Laing J M, Thompson S M, Aurelian L. The growth compromised HSV-2 mutant DeltaRR prevents kainic acid-induced apoptosis and loss of function in organotypic hippocampal cultures. Brain Res 2006; 1119: 26-39). […]

caspase-3 = test: Immunoblotting for caspase-3 activation in infected melanoma cells; conditions: delta-PK infected cultures, PD150606 100 μM, 24 hrs p.i.
Text: as §1, §2

A375 cells = test: EtHD cell death with or without protease inhibitors, A375; conditions: A375, delta-PK moi=0.5, 72 hrs p.i.; PD150606 100 μM or z-VAD-fmk 20 μM
Procedure: as §3, §4

SMILES | effect of inhibitor on delta-PK induced calpain activation (p76/p80 ratio, p28) (calpain) | % EtHD+ cells in delta-PK infected cultures in presence of inhibitor (A2058 cells) | effect of inhibitor on levels of caspase-3p17 cleavage product (caspase-3) | % EtHD+ cells in delta-PK infected cultures in presence of inhibitor (A375 cells)
O=C(O)/C(S)=C/c1ccc(I)cc1 [PD150606] | inhibited | 30.7+/−2.8% | increased | 49.1+/−2.5%
COC(=O)C[C@H](NC(=O)[C@H](C)NC(=O)[C@@H](NC(=O)OCc1ccccc1)C(C)C)C(=O)CF [z-VAD-fmk, benzyloxcarbonyl-Val-Ala-Asp-fluormethyl ketone] (Cbz-Val-Ala-Asp(OMe)-CH2F) | did not affect calpain activation | 35.8+/−2.5% | – | 49.6+/−3.7%
